Earlier results on 2 compounds are cited in patent US4324553A, “Hair dyeing compositions containing at least one 2,4-diamino-alkylbenzene as coupler” (L'Oreal, priority 1979, dated 1982).

The test system of the data set is Salmonella typhimurium (TA 1538 and TA 98). The settings on record: Salmonella typhimurium TA 1538 and TA 98, with S9 mix induced by Aroclor 1254; prior-art statement.

For `CCc1ccc(N)cc1N` [2,4-Diamino-ethylbenzene], the “mutagenic activity as evaluated in the Ames test” value is “high mutagenic activity”.
`Cc1ccc(N)cc1N` [2,4-diaminotoluene]: the “mutagenic activity as evaluated in the Ames test” value was “very high mutagenic activity”.
